Reference: paper PMC12677607, “Identification of a Pair of Linear or Cyclic Naturally Inspired Bifunctional Lipopeptide Antibiotics That Overcome Antimicrobial Resistance” (Advanced Science, 2025)
Numbered stars: 1 amine (or outer) side, 2 acyl side, 3 side chain; on linkers, the order of the positions; unused ones are H or OH. Bridge positions count the residues as written; N and C are the ends. Square brackets hold non-standard residues; d marks the D form. Peptide text beside a SMILES is read from it. * marks the point of attachment. Octanoyl(3R-OH) = CCCCC[C@@H](O)CC(=O)*; X3 = CCCCC[C@H](CC(=O)[*:1])O[*:2]; Dab = NCC[C@H](N)C(=O)O; Dap = NC[C@H](N)C(=O)O

Experiments:
[1] = system: Candida albicans ATCC 10231; assay: MIC assay (YPD broth); type: cell-based; conditions: for MIC (μg/mL) C. albicans ATCC 10231: ATCC 10231, 16 h
Experimental: (§1) All MIC assays were performed two independent times (n = 2) in 96‐well plates using a broth micro‐dilution method. The lowest concentration of that inhibited visible microbial growth was recorded as the MIC value.
(§2) For fungal strains, overnight cultures were diluted 2000‐fold in YPD broth. 100 µL of diluted cells was mixed with 100 µL of YPD broth containing each peptide ranging from […] 64 to 0.125 µg mL^−1 at 2‐fold serial dilutions.

HeLa cells = assay: Cytotoxicity assay (CCK-8); type: cell-based, human; conditions: 48 h
Experimental: The cytotoxicity of each synAQU peptide was assessed using a cell counting kit‐8 (CCK‐8) assay. HeLa cells were first seeded in a 96‐well flat‐bottom microtiter plate with a density of ∼5000 cells per well and incubated in the DMEM medium supplemented with 10% FBS at 37 °C with 5% CO2 for 24 h. […] All cytotoxicity experiments were done in triplicate (n = 3) and repeated two independent times (n = 2).

[2] = system: Staphylococcus aureus USA300; assay: microbe, parasite or virus in culture; type: cell-based; conditions: for MIC (μg/mL) S. aureus USA300: USA300, 16 h
Experimental: as §1
(§3) For most of bacterial strains, overnight cultures were diluted 5000‐fold in LB broth. For E. faecium and S. aureus, overnight cultures were diluted 1000‐ and 10000‐fold in LB broth, respectively. 100 µL of diluted cells was mixed with 100 µL of LB broth containing each peptide ranging from 64 to 0.125 µg mL^−1 at 2‐fold serial dilutions.

[3] = system: Klebsiella pneumoniae CRKP 5452; assay: microbe, parasite or virus in culture; type: cell-based; conditions: for MIC (μg/mL) K. pneumoniae CRKP 5452: CRKP 5452, 16 h
Experimental: as §1, §3

[4] = system: Acinetobacter baumannii 1104008; assay: microbe, parasite or virus in culture; type: cell-based; conditions: for MIC (μg/mL) A. baumannii 1104008: 1104008, 16 h
Experimental: as §1, §3

[5] = system: Streptococcus pyogenes ATCC 19615; assay: microbe, parasite or virus in culture; type: cell-based; conditions: for MIC (μg/mL) S. pyogenes ATCC 19615: ATCC 19615, 16 h
Experimental: as §1, §3

Shigella Castellani LXX = assay: MIC assay (broth micro-dilution); type: cell-based; conditions: Table S11; LB broth, 37 °C, 16 h, n = 2
Experimental: as §1, §3

[6] = system: Klebsiella pneumoniae ATCC 13883; assay: microbe, parasite or virus in culture; type: cell-based; conditions: ATCC 13883, 16 h
Experimental: as §1, §3

[7] = system: Acinetobacter baumannii ATCC 19606; assay: microbe, parasite or virus in culture; type: cell-based; conditions: ATCC 19606, 16 h
Experimental: as §1, §3

[8] = system: Pseudomonas aeruginosa PAO1; assay: microbe, parasite or virus in culture; type: cell-based; conditions: PAO1, 16 h
Experimental: as §1, §3

[9] = system: Salmonella enterica ATCC 14028; assay: microbe, parasite or virus in culture; type: cell-based; conditions: ATCC 14028, 16 h
Experimental: as §1, §3

[10] = system: Klebsiella pneumoniae CRKP HS11286; assay: microbe, parasite or virus in culture; type: cell-based; conditions: CRKP HS11286, 16 h
Experimental: as §1, §3

[11] = system: Acinetobacter baumannii ATCC 17978; assay: microbe, parasite or virus in culture; type: cell-based; conditions: ATCC 17978, 16 h
Experimental: as §1, §3

[12] = system: Enterococcus faecalis ATCC 29212; assay: microbe, parasite or virus in culture; type: cell-based; conditions: ATCC 29212, 16 h
Experimental: as §1, §3

[13] = system: Staphylococcus aureus Newman; assay: microbe, parasite or virus in culture; type: cell-based; conditions: Newman, 16 h
Experimental: as §1, §3

[14] = system: Vibrio alginolyticus XSBZ14; assay: microbe, parasite or virus in culture; type: cell-based; conditions: 16 h
Experimental: as §1, §3

[15] = system: Salmonella typhimurium LXX; assay: microbe, parasite or virus in culture; type: cell-based; conditions: murium LXX, 16 h
Experimental: as §1, §3

Enterococcus faecalis 26 = assay: microbe, parasite or virus in culture; type: cell-based; conditions: 26, 16 h
Experimental: as §1, §3

[16] = system: Streptococcus mutans ATCC 25175; assay: microbe, parasite or virus in culture; type: cell-based; conditions: ATCC 25175, 16 h
Experimental: as §1, §3

[17] = system: Pseudomonas aeruginosa ATCC 9027; assay: microbe, parasite or virus in culture; type: cell-based; conditions: ATCC 9027, 16 h
Experimental: as §1, §3

[18] = system: Staphylococcus aureus ATCC 6538; assay: microbe, parasite or virus in culture; type: cell-based; conditions: ATCC 6538, 16 h
Experimental: as §1, §3

[19] = system: Staphylococcus aureus ATCC 25923; assay: microbe, parasite or virus in culture; type: cell-based; conditions: ATCC 25923, 16 h
Experimental: as §1, §3

Enterococcus faecalis 28 = assay: microbe, parasite or virus in culture; type: cell-based; conditions: 28, 16 h
Experimental: as §1, §3

[20] = system: Enterococcus faecium 35682; assay: microbe, parasite or virus in culture; type: cell-based; conditions: Table S11; LB broth, 37 °C, 16 h, n = 2
Experimental: as §1, §3

[21] = system: Acinetobacter baumannii P53; assay: microbe, parasite or virus in culture; type: cell-based; conditions: Table S11; LB broth, 37 °C, 16 h, n = 2
Experimental: as §1, §3

[22] = system: Klebsiella pneumoniae NCTC 5056; assay: microbe, parasite or virus in culture; type: cell-based; conditions: NCTC 5056, 16 h
Experimental: as §1, §3

[23] = system: Candida albicans ATCC 64550; type: cell-based; conditions: ATCC 64550, 16 h
Experimental: as §1, §2

[24] = Table S11, LB broth, 37 °C, 16 h, n = 2

CCCCC[C@@H](O)CC(=O)N[C@@H](CN)C(=O)N[C@@H](Cc1ccccc1)C(=O)N[C@H]1CCNC(=O)[C@H](CC(=O)O)NC(=O)[C@H](C(C)C)NC(=O)[C@@H](CC(C)C)NC(=O)[C@H](CN)NC(=O)[C@@H](Cc2ccccc2)NC(=O)[C@H]([C@@H](C)O)NC1=O [synAQU3-C3] ({Octanoyl(3R-OH)}-[Dap]F[Dab]T[dF][Dap][dL]VD; lactam 3-C (inferred))
> 64 µg/mL: MIC (μg/mL) C. albicans ATCC 10231 [1] | MIC (μg/mL) Hela (HeLa cells) | MIC (μg/mL) S. aureus USA300 [2] | MIC (μg/mL) K. pneumoniae CRKP 5452 [3] | MIC (μg/mL) A. baumannii 1104008 [4] | MIC (μg/mL) S. pyogenes ATCC 19615 [5]

CCCCC[C@@H](O)CC(=O)N[C@@H](CN)C(=O)N[C@@H](Cc1ccccc1)C(=O)N[C@@H](CCN)C(=O)N[C@@H]1C(=O)N[C@H](Cc2ccccc2)C(=O)N[C@@H](CN)C(=O)N[C@H](CC(C)C)C(=O)N[C@@H](C(C)C)C(=O)N[C@@H](CC(=O)O)C(=O)O[C@@H]1C [synAQU3-C4] ({Octanoyl(3R-OH)}-[Dap]F[Dab]T[dF][Dap][dL]VD; ester 4-C (inferred))
> 64 µg/mL: MIC (μg/mL) C. albicans ATCC 10231 [1] | MIC (μg/mL) Hela (HeLa cells) | MIC (μg/mL) S. aureus USA300 [2] | MIC (μg/mL) K. pneumoniae CRKP 5452 [3] | MIC (μg/mL) A. baumannii 1104008 [4] | MIC (μg/mL) S. pyogenes ATCC 19615 [5]

CCCCC[C@@H](O)CC(=O)N[C@@H](CN)C(=O)N[C@@H](Cc1ccccc1)C(=O)N[C@@H](CCN)C(=O)N[C@H](C(=O)N[C@H](Cc1ccccc1)C(=O)N[C@@H](CN)C(=O)N[C@H](CC(C)C)C(=O)N[C@H](C(=O)N[C@@H](CC(=O)O)C(=O)O)C(C)C)[C@@H](C)O [synAQU3-L] ({Octanoyl(3R-OH)}-[Dap]F[Dab]T[dF][Dap][dL]VD-OH)
> 64 µg/mL: MIC (μg/mL) C. albicans ATCC 10231 [1] | MIC (μg/mL) Hela (HeLa cells) | MIC (μg/mL) S. aureus USA300 [2] | MIC (μg/mL) K. pneumoniae CRKP 5452 [3] | MIC (μg/mL) A. baumannii 1104008 [4] | MIC (μg/mL) S. pyogenes ATCC 19615 [5]

CCCCC[C@@H]1CC(=O)N[C@@H](CN)C(=O)N[C@@H](Cc2ccccc2)C(=O)N[C@@H](CCN)C(=O)N[C@@H]([C@@H](C)O)C(=O)N[C@H](Cc2ccccc2)C(=O)N[C@@H](CN)C(=O)N[C@H](CC(C)C)C(=O)N[C@@H](C(C)C)C(=O)N[C@@H](CC(=O)O)C(=O)O1 [synAQU3-cFA] ([Dap]F[Dab]T[dF][Dap][dL]VD; linker N-C via X3)
16 µg/mL: MIC Enterococcus faecalis 26 (Enterococcus faecalis 26)
8 µg/mL: MIC Streptococcus pyogenes ATCC 19615 [5, 24]
32 µg/mL: MIC Candida albicans ATCC 10231 ([1]; Table S11, YPD broth, 30 °C, 16 h, n = 2) | MIC Streptococcus mutans ATCC 25175 [16] | MIC Pseudomonas aeruginosa ATCC 9027 [17] | MIC Enterococcus faecium 35682 [20] | MIC Candida albicans ATCC 64550 [23]
> 64 µg/mL: MIC Klebsiella pneumoniae ATCC 13883 [6] | MIC Acinetobacter baumannii ATCC 19606 [7] | MIC Staphylococcus aureus USA300 [2, 24] | MIC Salmonella enterica ATCC 14028 [9] | MIC Klebsiella pneumoniae CRKP HS11286 [10] | MIC Enterococcus faecalis ATCC 29212 [12] | MIC Staphylococcus aureus Newman [13] | MIC Vibrio alginolyticus XSBZ14 [14] | MIC Klebsiella pneumoniae CRKP 5452 [3, 24] | MIC Acinetobacter baumannii 1104008 [4, 24] | MIC Staphylococcus aureus ATCC 6538 [18] | MIC Staphylococcus aureus ATCC 25923 [19] | MIC Enterococcus faecalis 28 (Enterococcus faecalis 28) | MIC Acinetobacter baumannii P53 [21] | MIC Klebsiella pneumoniae NCTC 5056 [22]
64 µg/mL: MIC Shigella Castellani LXX (Shigella Castellani LXX) | MIC Pseudomonas aeruginosa PAO1 [8] | MIC Acinetobacter baumannii ATCC 17978 [11] | MIC Salmonella typhimurium LXX [15]
